# Test results as given in patent US20150173369A1, “S[…] CONTROL AND IMPROVED CROP TOLERANCE FROM COMBINATIONS OF 2,4-D-CHOLINE, GLYPHOSATE, AND G[…] 2,4-D-, GLYPHOSATE- AND GLUFOSINATE-TOLERANT SOYBEANS, CORN, COTTON AND OTHER CROP AREAS” (Dow AgroSciences LLC, priority 2013, published 2015).
# “And” between values parts separate entries of the source, which are not always exact repeats. Equal entries are not always repeated.
# Key:
# AAD12 Soybean (GLXMA) = test: Field trials, crop tolerance (% visual crop injury); assay type: in vivo, Glycine max L.
# Procedure: (§1) Field trials were conducted under agricultural field conditions in multiple states in the United States, including but not limited to Arkansas, Iowa, Illinois, Indiana, Kansas, Minnesota, Mississippi, Missouri, New York, Tennessee and Wisconsin. Trials were established as RCB (randomized complete block) design, with 3-4 replicates per treatment, and plot sizes varying from 5-10 feet (ft) wide by 12-30 ft long. Treatments were applied with small plot backpack sprayers, using pressurized carbon dioxide (CO2) as propellant. Pressure varied from 17-52 pounds per square inch (psi), with spray tips typically of a Flat Fan type applying water diluent at 15 gallons per acre (GPA). Boom sizes varied from 5-11 ft in width. Treatments were applied to soybean, cotton, corn or fallow crop land. Weed sizes varied, but all treatments were applied as post-emergence treatments to weeds from 2 leaf to 2 tiller growth stages varying from 3 to 17 inches in height. The weed spectrum included, but was not limited to, Amaranthus palmeri S. Wats. (Palmer amaranth, AMAPA), Ambrosia trifida L. (giant ragweed, AMBTR), Conyza canadensis (L.) Cronq. (horseweed, ERICA) and Salsola tragus L. (Russian thistle, SASKR).
# (§2) Glyphosate-, 2,4-D- and glufosinate-tolerant soybeans, corn or cotton comprising genes for tolerance for each herbicide as described above were used in all trials either as a breeding stack of one to three herbicide-tolerant events or as a molecular stack where all three herbicide tolerance traits were transformed into a single event.
# (§3) The 2,4-D-choline salt plus glyphosate premix formulation was a 400 g ae/L SL containing 195 g ae/L 2,4-D-choline salt and 205 g ae/L glyphosate-dimethylammonium (DMA) salt. […] All treatments were mixed in water at appropriate formulated product rates to achieve the desired rates as shown based on a unit area of application (hectare). Treatments were rated at 1 to 28 days after application (DAA) as compared to the untreated control plants. The trial sites had naturally occurring populations of weeds. The treated plots and control plots were rated blind at various intervals after application.
# Colby's equation was used to determine the herbicidal effects expected from the mixtures (Colby, S. R. Calculation of the synergistic and antagonistic response of herbicide combinations. Weeds 1967, 15, 20-22). A t-test (alpha=0.05) between Colby predictions and observed combinations was used to test for significant differences indicating synergy or antagonism using replicate data. […] The following equation was used to calculate the expected activity of mixtures containing three active ingredients, A. B, and C: […]
# [1] = test system: Amaranthus palmeri S. Wats. (Palmer amaranth, AMAPA); test: Field trials, post-emergence weed control (% visual control); assay type: in vivo; settings: 542 g ae/ha alone
# Procedure: as §1, §2, §3
# (§4) Colby's equation was used to determine the herbicidal effects expected from the mixtures (Colby, S. R. Calculation of the synergistic and antagonistic response of herbicide combinations. Weeds 1967, 15, 20-22). A t-test (alpha=0.05) between Colby predictions and observed combinations was used to test for significant differences indicating synergy or antagonism using replicate data. The results presented in the Tables were significant according to the described criteria. The following equation was used to calculate the expected activity of mixtures containing three active ingredients, A. B, and C: […]
# [2] = test system: Ambrosia trifida L. (giant ragweed, AMBTR); test: as above; assay type: in vivo; settings: 542 g ae/ha alone
# Procedure: as §1, §2, §3, §4
# [3] = test system: Salsola tragus L. (Russian thistle, SASKR); test: as above; assay type: in vivo; settings: 542 g ae/ha alone
# Procedure: as §1, §2, §3, §4
# [4] = test system: Conyza canadensis (L.) Cronq. (horseweed, ERICA); test: as above; assay type: in vivo; settings: ERICA 14DAA; 542 g ae/ha alone
# Procedure: as §1, §2, §3, §4
smiles,measurement,setting,value
"CP(=O)(O)CCC(N)C(=O)O (centres unmarked) [Glufosinate-Ammonium, ammonium (3-amino-3-carboxypropyl)(methyl)phosphinate]",Mean % visual crop injury,"AAD12 Soybean (GLXMA); GLXMA 1DAA, 542 g ae/ha alone",12.5%
same,Mean % visual crop injury,"AAD12 Soybean (GLXMA); GLXMA 1DAA, 822 g ae/ha alone",16.3%
same,Mean % visual crop injury,"AAD12 Soybean (GLXMA); GLXMA 1DAA, 1084 g ae/ha alone",20.0%
same,Mean % visual crop injury,"AAD12 Soybean (GLXMA); GLXMA 2DAA, 822 g ae/ha alone",9.5% and 12.3% and 11.3% and 8.3% and 7.5% and 7.3% and 13.8%
same,Mean % visual crop injury,"AAD12 Soybean (GLXMA); GLXMA 2DAA, 1084 g ae/ha alone",13.0% and 15.5% and 11.3% and 11.8% and 8.5% and 7.8% and 7.5%
same,Mean % visual crop injury,"AAD12 Soybean (GLXMA); GLXMA 4DAA, 542 g ae/ha alone",3.8% and 2.8% and 6.3%
same,Mean % visual crop injury,"AAD12 Soybean (GLXMA); GLXMA 5DAA, 542 g ae/ha alone",4.0%
same,Mean % visual crop injury,"AAD12 Soybean (GLXMA); GLXMA 5DAA, 1084 g ae/ha alone",7.8%
same,Mean % visual crop injury,"AAD12 Soybean (GLXMA); GLXMA 6DAA, 823 g ae/ha alone",33.3%
same,Mean % visual crop injury,"AAD12 Soybean (GLXMA); GLXMA 7DAA, 542 g ae/ha alone",3.3%
same,Mean % visual crop injury,"AAD12 Soybean (GLXMA); GLXMA 8DAA, 542 g ae/ha alone",2.8%
same,Mean % visual crop injury,"AAD12 Soybean (GLXMA); GLXMA 9DAA, 822 g ae/ha alone",5.5%
same,Mean % visual crop injury,"AAD12 Soybean (GLXMA); GLXMA 9DAA, 1084 g ae/ha alone",6.0%
same,Mean % visual crop injury,"AAD12 Soybean (GLXMA); GLXMA 10DAA, 1084 g ae/ha alone",8.5% and 10.0%
same,Mean % visual crop injury,"AAD12 Soybean (GLXMA); GLXMA 13DAA, 823 g ae/ha alone",10.7%
same,Mean % visual crop injury,"AAD12 Soybean (GLXMA); GLXMA 13DAA, 1084 g ae/ha alone",8.5%
same,Mean % visual crop injury,"AAD12 Soybean (GLXMA); GLXMA 14DAA, 542 g ae/ha alone",5.8% and 12.5%
same,Mean % visual crop injury,"AAD12 Soybean (GLXMA); GLXMA 15DAA, 542 g ae/ha alone",4.5%
same,Mean % visual crop injury,"AAD12 Soybean (GLXMA); GLXMA 15DAA, 822 g ae/ha alone",2.3% and 5.0%
same,Mean % visual crop injury,"AAD12 Soybean (GLXMA); GLXMA 15DAA, 1084 g ae/ha alone",5.5% and 8.5% and 2.3%
same,Mean % visual crop injury,"AAD12 Soybean (GLXMA); GLXMA 16DAA, 542 g ae/ha alone",3.0%
same,Mean % visual crop injury,"AAD12 Soybean (GLXMA); GLXMA 16DAA, 822 g ae/ha alone",4.0%
same,Mean % visual crop injury,"AAD12 Soybean (GLXMA); GLXMA 16DAA, 1084 g ae/ha alone",5.0% and 5.5%
same,Mean % visual crop injury,"AAD12 Soybean (GLXMA); GLXMA 21DAA, 542 g ae/ha alone",4.0%
same,Mean % visual crop injury,"AAD12 Soybean (GLXMA); GLXMA 21DAA, 822 g ae/ha alone",5.0%
same,Mean % visual crop injury,"AAD12 Soybean (GLXMA); GLXMA 21DAA, 1084 g ae/ha alone",6.0%
same,Mean % visual crop injury,"AAD12 Soybean (GLXMA); table title: % Visual Necrosis, GLXMA 2DAA, 1084 g ae/ha alone",25.0%
same,Mean % visual crop injury,"AAD12 Soybean (GLXMA); table title: % Visual Necrosis, GLXMA 3DAA, 542 g ae/ha alone",0.0%
same,Mean % visual crop injury,"AAD12 Soybean (GLXMA); table title: % Visual Necrosis, GLXMA 3DAA, 822 g ae/ha alone",0.8%
same,Mean % visual crop injury,"AAD12 Soybean (GLXMA); table title: % Visual Necrosis, GLXMA 3DAA, 1084 g ae/ha alone",3.0% and 8.5% and 1.5% and 1.3%
same,Mean % visual crop injury,"AAD12 Soybean (GLXMA); table title: % Visual Necrosis, GLXMA 5DAA, 542 g ae/ha alone",2.8%
same,Mean % visual crop injury,"AAD12 Soybean (GLXMA); table title: % Visual Necrosis, GLXMA 7DAA, 542 g ae/ha alone",0.5% and 0.3%
same,Mean % visual crop injury,"AAD12 Soybean (GLXMA); table title: % Visual Necrosis, GLXMA 7DAA, 822 g ae/ha alone",0.8% and 0.0% and 10.0% and 1.0% and 1.3%
same,Mean % visual crop injury,"AAD12 Soybean (GLXMA); table title: % Visual Necrosis, GLXMA 7DAA, 1084 g ae/ha alone",3.3% and 1.3% and 10.0% and 2.0% and 2.3%
same,Mean % visual crop injury,"AAD12 Soybean (GLXMA); table title: % Visual Necrosis, GLXMA 8DAA, 822 g ae/ha alone",7.5%
same,Mean % visual crop injury,"AAD12 Soybean (GLXMA); table title: % Visual Necrosis, GLXMA 8DAA, 1084 g ae/ha alone",10.0% and 12.5% and 6.5%
same,Mean % visual crop injury,"AAD12 Soybean (GLXMA); table title: % Visual Necrosis, GLXMA 9DAA, 822 g ae/ha alone",6.0%
same,Mean % visual crop injury,"AAD12 Soybean (GLXMA); table title: % Visual Necrosis, GLXMA 10DAA, 1084 g ae/ha alone",2.3%
same,Mean % visual crop injury,"AAD12 Soybean (GLXMA); table title: % Visual Necrosis, GLXMA 14DAA, 822 g ae/ha alone",0.0% and 1.0%
same,Mean % visual crop injury,"AAD12 Soybean (GLXMA); table title: % Visual Necrosis, GLXMA 14DAA, 1084 g ae/ha alone",5.0% and 2.0%
same,Mean % visual crop injury,"AAD12 Soybean (GLXMA); table title: % Visual Necrosis, GLXMA 16DAA, 542 g ae/ha alone",3.0%
same,Mean % visual crop injury,"AAD12 Soybean (GLXMA); table title: % Visual Necrosis, GLXMA 16DAA, 822 g ae/ha alone",5.0%
same,Mean % visual crop injury,"AAD12 Soybean (GLXMA); table title: % Visual Necrosis, GLXMA 16DAA, 1084 g ae/ha alone",1.8%
same,Mean % Weed Control,[1]; AMAPA 7DAA,67.5%
same,Mean % Weed Control,[1]; AMAPA 8DAA,32.5%
same,Mean % Weed Control,[1]; AMAPA 11DAA,33.8%
same,Mean % Weed Control,[1]; AMAPA 13DAA,31.3%
same,Mean % Weed Control,[1]; AMAPA 14DAA,10.0%
same,Mean % Weed Control,[1]; AMAPA 16DAA,36.7%
same,Mean % Weed Control,[1]; AMAPA 21DAA,38.8%
same,Mean % Weed Control,[1]; AMAPA 23DAA,21.7%
same,Mean % Weed Control,[2]; AMBTR 8DAA,56.7%
same,Mean % Weed Control,[2]; AMBTR 21DAA,36.7%
same,Mean % Weed Control,[3]; SASKR 21DAA,13.8%
same,Mean % Weed Control,[3]; SASKR 28DAA,15%
same,Mean % Weed Control,[4],76.8%
